Results: patent US7781430B2, “Benzoxazole carboxamides for treating CINV and IBS-D” (Albany Molecular Research, Inc., priority 2005, dated 2010)

Columns and labels:
[1] = molecular target: T1, 5-HT3 receptors (Mus musculus, UniProt P23979); assay: Bezold-Jarisch assay in vivo (inhibition of serotonin induced bradycardia); settings: 30 mg/kg orally, CD-1 mice; 5-HT (0.5 mg/kg IV)-induced bradycardia recorded sixty minutes later, pentobarbital-anesthetized
T1 construct: a group of 5 male or female CD-1 (Crl.) mice; from tissue
T1 sequence (P23979 24-489): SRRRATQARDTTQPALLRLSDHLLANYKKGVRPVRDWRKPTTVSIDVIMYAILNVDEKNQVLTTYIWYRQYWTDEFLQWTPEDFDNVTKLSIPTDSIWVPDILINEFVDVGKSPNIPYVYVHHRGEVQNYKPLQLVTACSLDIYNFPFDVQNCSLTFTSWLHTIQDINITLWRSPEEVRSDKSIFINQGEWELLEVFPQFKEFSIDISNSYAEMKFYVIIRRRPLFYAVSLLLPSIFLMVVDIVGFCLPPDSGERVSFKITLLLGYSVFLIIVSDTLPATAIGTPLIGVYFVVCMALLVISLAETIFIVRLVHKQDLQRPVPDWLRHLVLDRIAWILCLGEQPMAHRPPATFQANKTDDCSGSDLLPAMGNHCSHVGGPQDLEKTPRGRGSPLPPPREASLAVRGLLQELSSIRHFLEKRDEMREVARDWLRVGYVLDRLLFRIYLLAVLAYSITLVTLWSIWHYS
Experimental: Bezold-Jarisch Assay in vivo. […] Arch. Int. Pharmacodyn. 277: 235-252, 1985]. Test substances and vehicle [2% Tween 80] were each administered orally (30 mg/kg) to a group of 5 male or female CD-1 (Crl.) mice each weighing 24±2 g. A dosing volume of 10 mL/kg was used. Sixty minutes later, 5-HT (0.5 mg/kg IV)-induced bradycardia was recorded in pentobarbital (80 mg/kg IP, given 10 minutes before 5-HT)-anesthetized animals.

Compound | melting point | % Inhibition in vivo [1]
COc1ccc(-c2nc3c(C(=O)NC4CC5CCCC(C4)N5C)cccc3o2)cc1 (stereo not shown) | 103 to 105 °C | –
CN1C2CCCC1CC(NC(=O)c1cccc3oc(-c4ccc(F)cc4)nc13)C2 (stereo not shown) | 197 to 199 °C | –
CN1CCC(NC(=O)c2cccc3nc(-c4ccccc4)oc23)CC1 | 209 to 210 °C | –
COc1ccc(-c2nc3cccc(C(=O)NC4CN5CCC4CC5)c3o2)cc1 (stereo not shown) | 166 to 167 °C | –
CN1C2CCC1CC(NC(=O)c1cccc3nc(-c4ccccc4)oc13)C2 (stereo not shown) | 164 to 166 °C | –
CN1CCC(NC(=O)c2cccc3oc(-c4ccccc4)nc23)CC1 | 126 to 128 °C | –
CN1C2CCCC1CC(NC(=O)c1cccc3oc(-c4ccccc4)nc13)C2 (stereo not shown) | 182 to 185 °C | –
CN1C2CCCC1CC(NC(=O)c1cc(Cl)cc3oc(-c4ccccc4)nc13)C2 (stereo not shown) | – | 40%
COc1ccc(-c2nc3c(C(=O)NC4CN5CCC4CC5)cccc3o2)cc1 (stereo not shown) | 108 to 109 °C | –
CN1CCC(NC(=O)c2cc(Cl)cc3oc(-c4ccccc4)nc23)CC1 | 170 to 172 °C | –
CN1C2CCC1CC(NC(=O)c1cccc3oc(-c4ccccc4)nc13)C2 (stereo not shown) | 149 to 151 °C | –
O=C(NC1CN2CCC1CC2)c1cccc2oc(-c3ccc(F)cc3)nc12 (stereo not shown) | 208 to 209 °C | –
CN1C2CCCC1CC(NC(=O)c1cccc3oc(-c4ccc(Cl)cc4)nc13)C2 (stereo not shown) | 185 to 187 °C | –
O=C(NC1CN2CCC1CC2)c1cccc2oc(-c3ccsc3)nc12 (stereo not shown) | – | 62%
O=C(NC1CCNCC1)c1cccc2nc(-c3ccccc3)oc12 | 191 to 193 °C | –
O=C(NC1CN2CCC1CC2)c1cccc2nc(-c3ccc(F)cc3)oc12 (stereo not shown) | 185 to 187 °C | –

Compound | melting point | % Inhibition in vivo [1]
COc1ccccc1-c1nc2c(C(=O)NC3CN4CCC3CC4)cccc2o1 (stereo not shown) | – | 88%
O=C(NC1CN2CCC1CC2)c1cc(Cl)cc2oc(-c3ccccc3)nc12 (stereo not shown) | 180 to 183 °C | –
CN1C2CCCC1CC(NC(=O)c1cccc3nc(-c4ccc(Cl)cc4)oc13)C2 (stereo not shown) | 193 to 196 °C | –
O=C(NC1CCNCC1)c1cccc2oc(-c3ccccc3)nc12 | 99 to 102 °C | –
O=C(NC1CN2CCC1CC2)c1cccc2oc(-c3ccccc3)nc12 (stereo not shown) | 77 to 80 °C | –
O=C(NC1CCNCC1)c1cc(Cl)cc2oc(-c3ccccc3)nc12 | 169 to 171 °C | –
O=C(NC1CN2CCC1CC2)c1cccc2oc(-c3ccc(Cl)cc3)nc12 (stereo not shown) | 194 to 196 °C | –
O=C(NC1CN2CCC1CC2)c1cc(Cl)cc2nc(-c3ccccc3)oc12 (stereo not shown) | 283 to 285 °C | –
Cc1nccn1CCCNC(=O)c1cccc2oc(-c3ccccc3)nc12 | 145 to 148 °C | –
O=C(NC1CN2CCC1CC2)c1cccc2nc(-c3ccc(Cl)cc3)oc12 (stereo not shown) | 181 to 183 °C | –
CN1C2CCCC1CC(NC(=O)c1cccc3nc(-c4ccc(F)cc4)oc13)C2 (stereo not shown) | 229 to 231 °C | –
CN1C2CCCC1CC(NC(=O)c1cc(Cl)cc3nc(-c4ccccc4)oc13)C2 (stereo not shown) | 199 to 201 °C | –
O=C(NC1CN2CCC1CC2)c1cccc2nc(-c3ccccc3)oc12 (stereo not shown) | 179 to 180 °C | –
COc1ccc(-c2nc3cccc(C(=O)NC4CC5CCCC(C4)N5C)c3o2)cc1 (stereo not shown) | 160 to 162 °C | –
Cc1nccn1CCNC(=O)c1cccc2oc(-c3ccccc3)nc12 | 125 to 127 °C | –
